# Patent US4112228A, “7-(D-α-Hydroxy-2-arylacetamido)-3-(2-carboxyalkyl-2,3-dihydro-s-tri azolo-[4,3-b]pyridazin-3-on-6-ylthiomethyl)-3-cephem-4-carboxylic acids and derivatives” (priority 1977, dated 1978)
# Like-named read-outs stand apart in the source and are kept apart here.
# Tests used:
# [1] = tested on: S. aureus; assay: MIC by Steers' agar dilution method; assay type: cell-based; conditions: Staphylococcus aureus
# [2] = tested on: Shig. dysenteriae; assay: MIC by Steers' agar dilution method; conditions: Shigella dysenteriae, MHA
# [3] = tested on: E. cloacae A20464 (El-19); assay: Standard experimental infection in mice; assay type: in vivo; conditions: Run C-811
# [4] = tested on: B. anthracis; assay: microbe, parasite or virus in culture; assay type: cell-based; conditions: Bacillus anthracis
# [5] = tested on: P. mirabilis A9900 (Pm-2); assay: Standard experimental infection (single sc treatment); conditions: for No. of survivors/No. tested: Run C-810, 1×10^3 LD50, single sc
# [6] = tested on: Sal. typhosa; assay: MIC by Steers' agar dilution method; assay type: cell-based; conditions: MHA
# [7] = tested on: St. faecalis; assay: MIC by Steers' agar dilution method; conditions: Enterococcus faecalis
# [8] = tested on: Serr. marcescens; assay: MIC by Steers' agar dilution method; conditions: Serratia marcescens
# [9] = tested on: Citrobacter sp.; assay: MIC by Steers' agar dilution method
# [10] = tested on: Ps. aeruginosa; assay: MIC by Steers' agar dilution method; conditions: Pseudomonas aeruginosa
# [11] = Blood levels in mice after subcutaneous administration; assay type: in vivo; conditions: mouse, read-out: Blood level; for concentration at 0.25 h: 15'; for concentration at 0.5 h: 30'; for concentration at 1 h: 60'; for concentration at 2 h: 120'
# Method: Groups of mice were administered subcutaneously graded doses of 40, 20 and 10 mg./kg..
# [12] = tested on: Klebsiella sp.; assay: MIC by Steers' agar dilution method
# [13] = tested on: P. inconstans; assay: MIC by Steers' agar dilution method; conditions: Providencia alcalifaciens
smiles,measurement,setting,value
"O=C(O)Cn1nc2ccc(SCC3=C(C(=O)O)N4C(=O)C(NC(=O)[C@H](O)c5ccccc5)[C@H]4SC3)nn2c1=O (stereo partly drawn) [BB-S488, 7-(D-Mandelamido)-3-(2-carboxymethyl-2,3-dihydro-s-triazolo[4,3-b]pyridazin-3-on-6-ylthiomethyl)-3-cephem-4-carboxylic Acid]",MIC,"[1]; A9497, MHA, Table 1",0.1 µg/mL
same,MIC,"[1]; BX-1633, MHA, Example 10",3.1 µg/mL
same,MIC,"[1]; BX-1633 A9606, MHA, Table 1",0.4 µg/mL
same,MIC,"[1]; Sa-2 Smith A9537, HIA, Table 4",0.8 µg/mL
same,MIC,"[1]; Sa-2 Smith A9537, MHA, Table 2",0.4 µg/mL
same,MIC,"[1]; Sa-2 Smith A9537, MHA, Table 4",0.8 µg/mL
same,MIC,"[1]; Sa-2 Smith A9537, NA, Table 4",0.8 µg/mL
same,MIC,"[1]; Sa-3 No. 193, MHA, Table 2",0.8 µg/mL
same,MIC,"[1]; Sa-8, MHA, Table 2",0.4 µg/mL
same,MIC,"[1]; Sa-9 No. 193, MHA, Table 2",0.8 µg/mL
same,MIC,"[1]; Sa-10 A20239, MHA, Table 2",1.6 µg/mL
same,MIC,"[1]; Sa-11 BX-1633 A9606 (β-lactamase), HIA, Table 4",1.6 µg/mL
same,MIC,"[1]; Sa-11 BX-1633 A9606 (β-lactamase), MHA, Table 4",0.8 µg/mL
same,MIC,"[1]; Sa-11 BX-1633 A9606 (β-lactamase), NA, Table 4",3.1 µg/mL
same,MIC,"[1]; Sa-11 BX-1633 A9606, MHA, Table 2",0.4 µg/mL
same,MIC,"[1]; Sa-12 A9497, MHA, Table 2",0.2 µg/mL
same,MIC,"[1]; Sa-29 No. 193, MHA, Table 2",1.6 µg/mL
same,MIC,"[1]; Sa-33 Terajima, MHA, Table 2",0.0125 µg/mL
same,MIC,"[1]; Sa-34 A15092, MHA, Table 2",0.8 µg/mL
same,MIC,"[1]; Sa-35 A15094, MHA, Table 2",0.8 µg/mL
same,MIC,"[1]; Sa-36 Russell, MHA, Table 2",0.8 µg/mL
same,MIC,"[1]; Sa-37 A9524, MHA, Table 2",1.6 µg/mL
same,MIC,"[1]; Sa-38 A9534, MHA, Table 2",0.4 µg/mL
same,MIC,"[1]; Sa-39 A9578, MHA, Table 2",0.8 µg/mL
same,MIC,"[1]; Sa-40 A9601, MHA, Table 2",0.8 µg/mL
same,MIC,"[1]; Sa-41 A9602, MHA, Table 2",0.8 µg/mL
same,MIC,"[1]; Sa-44 A15097, HIA, Table 4",> 100 µg/mL
same,MIC,"[1]; Sa-44 A15097, MHA, Table 2",25 µg/mL
same,MIC,"[1]; Sa-44 A15097, MHA, Table 4",100 µg/mL
same,MIC,"[1]; Sa-44 A15097, NA, Table 4",> 100 µg/mL
same,MIC,"[1]; Sa-56 A9630, MHA, Table 2",3.1 µg/mL
same,MIC,"[1]; Sa-57 A9748, MHA, Table 2",25 µg/mL
same,MIC,"[1]; Sa-58 A15033, MHA, Table 2",12.5 µg/mL
same,MIC,"[1]; Sa-59 A15096, MHA, Table 2",100 µg/mL
same,MIC,"[1]; Sa-60 A20604, MHA, Table 2",50 µg/mL
same,MIC,"[1]; Sa-61 A20605, MHA, Table 2",100 µg/mL
same,MIC,"[1]; Sa-62 A20606, MHA, Table 2",3.1 µg/mL
same,MIC,"[1]; Sa-63 A20607, MHA, Table 2",> 100 µg/mL
same,MIC,"[1]; Sa-64 A20608, MHA, Table 2",100 µg/mL
same,MIC,"[1]; Sa-65 A20609, MHA, Table 2",100 µg/mL
same,MIC,"[1]; Sa-66 A20610, MHA, Table 2",100 µg/mL
same,MIC,"[1]; Sa-67 A20611, MHA, Table 2",100 µg/mL
same,MIC,"[1]; Sa-68 A20612, MHA, Table 2",1.6 µg/mL
same,MIC,"[1]; Sa-69 A20613, MHA, Table 2",100 µg/mL
same,MIC,"[1]; Smith A9537, MHA, Table 1",0.2 µg/mL
same,MIC,"[1]; Smith, MHA, Example 10",0.8 µg/mL
same,MIC,"[1]; strain not named, MHA, Example 10",0.4 µg/mL
same,MIC,[2]; Example 10,0.025 µg/mL
same,MIC,[2]; Table 1,0.025 µg/mL
same,MIC,"[2]; Sd-1, Table 3",0.1 µg/mL
same,ED50,"[3]; Enterobacter cloacae, read-out: PD50",0.54 mg/kg
same,No. of survivors/No. tested,[3]; 0.4 mg./kg.,2/5
same,No. of survivors/No. tested,[3]; 1.6 mg./kg.,4/5
same,No. of survivors/No. tested,[3]; 6.3 mg./kg.,5/5
same,No. of survivors/No. tested,[3]; 25 mg./kg.,5/5
same,No. of survivors/No. tested,[3]; 100 mg./kg.,5/5
same,MIC,"[4]; Ba-3 A9504, HIA, Table 4",0.2 µg/mL
same,MIC,"[4]; Ba-3 A9504, MHA, Table 4",0.2 µg/mL
same,MIC,"[4]; Ba-3 A9504, NA, Table 4",0.4 µg/mL
same,MIC,"[4]; MHA, Example 10",0.2 µg/mL
same,ED50,"[5]; Proteus mirabilis, in Mus musculus, sc, read-out: PD50",1.1 mg/kg
same,No. of survivors/No. tested,[5]; 0.1 mg./kg.,0/5
same,No. of survivors/No. tested,[5]; 0.4 mg./kg.,0/5
same,No. of survivors/No. tested,[5]; 1.6 mg./kg.,4/5
same,No. of survivors/No. tested,[5]; 6.3 mg./kg.,5/5
same,No. of survivors/No. tested,[5]; 25 mg./kg.,5/5
same,MIC,"[6]; A9498, Table 1",0.05 µg/mL
same,MIC,[6]; Example 10,0.05 µg/mL
same,MIC,"[7]; A9536, MHA, Table 1",100 µg/mL
same,MIC,"[7]; MHA, Example 10",> 100 µg/mL
same,MIC,"[7]; Sf-3 S. faecalis A9536, HIA, Table 4",> 100 µg/mL
same,MIC,"[7]; Sf-3 S. faecalis A9536, MHA, Table 4",> 100 µg/mL
same,MIC,"[7]; Sf-3 S. faecalis A9536, NA, Table 4",> 100 µg/mL
same,MIC,"[8]; A20019, MHA, Table 1",100 µg/mL
same,MIC,"[8]; MHA, Example 10",> 100 µg/mL
same,MIC,"[8]; Sm-1 A20019 (β-lactamase), HIA, Table 4",> 100 µg/mL
same,MIC,"[8]; Sm-1 A20019 (β-lactamase), MHA, Table 4",> 100 µg/mL
same,MIC,"[8]; Sm-1 A20019 (β-lactamase), NA, Table 4",> 100 µg/mL
same,MIC,"[8]; Sm-1 A20019, MHA, Table 3",25 µg/mL
same,MIC,"[8]; Sm-2 A20335, MHA, Table 3",3.1 µg/mL
same,MIC,"[8]; Sm-3 A20336, HIA, Table 4",> 100 µg/mL
same,MIC,"[8]; Sm-3 A20336, MHA, Table 3",6.3 µg/mL
same,MIC,"[8]; Sm-3 A20336, MHA, Table 4",0.8 µg/mL
same,MIC,"[8]; Sm-3 A20336, NA, Table 4",100 µg/mL
same,MIC,"[8]; Sm-4 A20442, MHA, Table 3",6.3 µg/mL
same,MIC,"[8]; Sm-5 A20222, MHA, Table 3",3.1 µg/mL
same,MIC,"[8]; Sm-6 A20460, MHA, Table 3",6.3 µg/mL
same,MIC,"[8]; Sm-9 A20333, MHA, Table 3",6.3 µg/mL
same,MIC,"[8]; Sm-10 A20334, MHA, Table 3",6.3 µg/mL
same,MIC,"[8]; Sm-11 A20459, MHA, Table 3",6.3 µg/mL
same,MIC,"[8]; Sm-12 A20461, MHA, Table 3",6.3 µg/mL
same,MIC,[9]; Citrobacter,1.6 µg/mL
same,MIC,"[9]; Cx-2 A20694, MHA, Table 3",1.6 µg/mL
same,MIC,"[9]; Cx-3 A20695, MHA, Table 3",1.6 µg/mL
same,MIC,"[10]; A9843, MHA, Table 1",> 100 µg/mL
same,MIC,"[10]; A9930, MHA, Table 1",> 100 µg/mL
same,MIC,"[10]; Pa-3 A9930, HIA, Table 4",> 100 µg/mL
same,MIC,"[10]; Pa-3 A9930, MHA, Table 4",> 100 µg/mL
same,MIC,"[10]; Pa-3 A9930, NA, Table 4",100 µg/mL
same,MIC,"[10]; strain not given (1st of 2), MHA, Example 10",> 100 µg/mL
same,MIC,"[10]; strain not named (2nd of 2), MHA, Example 10",> 100 µg/mL
same,concentration at 0.25 h,[11]; sc 10 mg./kg.,5000 ng/mL
same,concentration at 0.5 h,[11]; sc 10 mg./kg.,3000 ng/mL
same,concentration at 1 h,[11]; sc 10 mg./kg.,800 ng/mL
same,concentration at 0.25 h,[11]; sc 20 mg./kg.,7400 ng/mL
same,concentration at 0.5 h,[11]; sc 20 mg./kg.,6000 ng/mL
same,concentration at 1 h,[11]; sc 20 mg./kg.,4300 ng/mL
same,concentration at 2 h,[11]; sc 20 mg./kg.,700 ng/mL
same,concentration at 0.25 h,[11]; sc 40 mg./kg.,19000 ng/mL
same,concentration at 0.5 h,[11]; sc 40 mg./kg.,17000 ng/mL
same,concentration at 1 h,[11]; sc 40 mg./kg.,12000 ng/mL
same,concentration at 2 h,[11]; sc 40 mg./kg.,1600 ng/mL
same,MIC,"[12]; Kx-2 A9662, MHA, Table 3",0.4 µg/mL
same,MIC,"[12]; Kx-3 A20346 (β-lactamase), HIA, Table 4",0.2 µg/mL
same,MIC,"[12]; Kx-3 A20346 (β-lactamase), MHA, Table 4",0.2 µg/mL
same,MIC,"[12]; Kx-3 A20346 (β-lactamase), NA, Table 4",0.2 µg/mL
same,MIC,"[12]; Kx-3 A20346, MHA, Table 3",0.2 µg/mL
same,MIC,[13],0.1 µg/mL
